Results taken from patent publication US20260200939A1, “MOLECULAR GLUE DEGRADER COMPOUNDS AND USES THEREOF” (Novartis AG, priority 2022, published 2026).

Legend:
BRD4 long = target: T1, BRD4 long (Homo sapiens, UniProt O60885); test: BRD4 (long) degradation assay, Western blotting; assay type: cell-based; details: first value of cell (long/short)
T1 construct: endogenous in cells; host or cells: HEK293T
Method: (§1) C33A cells were purchased from American Type Culture Collection (ATCC) and were cultured in Dulbecco's Modified Eagle Medium (DMEM) containing 10% (v/v) fetal bovine serum (FBS) and maintained at 37° C. with 5% CO2. 22RV1 cells were purchased from the ATCC and were cultured in RPMI-1640 Medium containing 10% (v/v) FBS and maintained at 37° C. with 5% CO2. HEK293T cells were obtained from the UC Berkeley Cell Culture Facility and were cultured in DMEM containing 10% (v/v) FBS and maintained at 37° C. with 5% CO2. K562 cells were obtained from the UC Berkeley Cell Culture Facility and were cultured in Iscove's Modified Dulbecco's Medium (IMDM) containing 10% (v/v) FBS and maintained at 37° C. with 5% CO2. MV-4-11 cells were obtained from the ATCC and were cultured in IMDM containing 10% (v/v) FBS and maintained at 37° C. with 5% CO2. A549 cells were obtained from the ATCC and were cultured in F-12K Medium containing 10% (v/v) FBS and maintained at 37° C. with 5% CO2. Mino cells were obtained from the ATCC and were cultured in RPMI-1640 Medium containing 10% (v/v) FBS and maintained at 37° C. with 5% CO2. LNCaP cells were obtained from the ATCC and were cultured in RPMI-1640 Medium containing 10% (v/v) FBS and maintained at 37° C. with 5% CO2. Unless otherwise specified, all cell culture materials were purchased from Gibco. It is not known whether HEK293T cells are from male or female origin.
(§2) Cells were washed twice with cold PBS, scraped, and pelleted by centrifugation (700 g, 5 min, 4° C.). Pellets were resuspended in PBS, sonicated, clarified by centrifugation (12,000 g, 10 min, 4° C.), and lysate was transferred to new low-adhesion microcentrifuge tubes. Proteome concentrations were determined using BCA assay and lysate was diluted to appropriate working concentrations.
(§3) Proteins were resolved by SDS/PAGE and transferred to nitrocellulose membranes using the Trans-Blot Turbo transfer system (Bio-Rad). Membranes were blocked with 5% BSA in Tris-buffered saline containing Tween 20 (TBS-T) solution for 30 min at RT, washed in TBS-T, and probed with primary antibody diluted in recommended diluent per manufacturer overnight at 4° C. After 3 washes with TBS-T, the membranes were incubated in the dark with IR680- or IR800-conjugated secondary antibodies at 1:10,000 dilution in 5% BSA in TBS-T at RT for 1 h. After 3 additional washes with TBST, blots were visualized using an Odyssey Li-Cor fluorescent scanner. The membranes were stripped using ReBlot Plus Strong Antibody Stripping Solution (EMD Millipore) when additional primary antibody incubations were performed. Antibodies used in this study were CDK4 (Abcam ab108357), Vinculin (Abcam ab129002), GAPDH (Cell Signaling Technology 14C10), RNF126 (Santa Cruz Biotechnology sc-376005), BRD4 (Abcam ab128874), Beta Actin (Cell Signaling Technology 13E5), PDE5 (Abcam ab259945), AR-V7 (Abcam ab273500), c-Abl (Santa Cruz Biotechnology sc-23), SMARCA2 (Abcam ab240648), LRRK2 (Abcam ab133474), BTK (Cell Signaling Technology D3H5), Androgen Receptor (Abcam ab133273).

BRD4 short = target: T2, BRD4 short (Homo sapiens, UniProt O60885); test: BRD4 (short) degradation assay, Western blotting; assay type: cell-based
T2 construct: endogenous in cells; host or cells: HEK293T
Method: as §1, §2, §3

[1] = second value of cell, range with lower bound in nM and upper bound in μM
[2] = second value of cell (long/short)

Compound	DC50 (BRD4 long) [nM]	DC50 (BRD4 short; [1]) [nM]	DC50 (BRD4 short; [2]) [nM]
COc1ccc(C(=O)/C=C/C(=O)N2CC3CCN(C(=O)C[C@@H]4N=C(c5ccc(Cl)cc5)c5c(sc(C)c5C)-n5c(C)nnc54)CC3C2)cc1 (stereo partly drawn) [Compound 225, (E)-1-(5-(2-((S)-4-(4-chlorophenyl)-2,3,9-trimethyl-6H-thieno[3,2-f][1,2,4]triazolo[4,3-a][1,4]diazepin-6-yl)acetyl)octahydro-2H-pyrrolo[3,4-c]pyridin-2-yl)-4-(4-methoxyphenyl)but-2-ene-1,4-dione]	< 10	100 to 1000	–
COc1ccc(NC(=O)/C=C/C(=O)N2CCN(C(=O)C[C@@H]3N=C(c4ccc(Cl)cc4)c4c(sc(C)c4C)-n4c(C)nnc43)CC2)cc1 [Compound 246, (S,E)-4-(4-(2-(4-(4-chlorophenyl)-2,3,9-trimethyl-6H-thieno[3,2-f][1,2,4]triazolo[4,3-a][1,4]diazepin-6-yl)acetyl)piperazin-1-yl)-N-(4-methoxyphenyl)-4-oxobut-2-enamide]	> 5000	100 to 1000	–
COc1ccc(C(=O)/C=C/C(=O)N2CCC3(CC2)CN(C(=O)C[C@@H]2N=C(c4ccc(Cl)cc4)c4c(sc(C)c4C)-n4c(C)nnc42)CCO3)cc1 [Compound 231, (S,E)-1-(4-(2-(4-(4-chlorophenyl)-2,3,9-trimethyl-6H-thieno[3,2-f][1,2,4]triazolo[4,3-a][1,4]diazepin-6-yl)acetyl)-1-oxa-4,9-diazaspiro[5.5]undecan-9-yl)-4-(4-methoxyphenyl)but-2-ene-1,4-dione]	10 to 100	–	1 to 10
COc1ccc(C(=O)/C=C/C(=O)N2CCN(C(=O)C[C@@H]3N=C(c4ccc(Cl)cc4)c4c(sc(C)c4C)-n4c(C)nnc43)C[C@H]2C)cc1 [Compound 217, (E)-1-((R)-4-(2-((S)-4-(4-chlorophenyl)-2,3,9-trimethyl-6H-thieno[3,2-f][1,2,4]triazolo[4,3-a][1,4]diazepin-6-yl)acetyl)-2-methylpiperazin-1-yl)-4-(4-methoxyphenyl)but-2-ene-1,4-dione]	< 10	–	< 10
COc1ccc(C(=O)/C=C/C(=O)N2CCC3(CCN(C(=O)C[C@@H]4N=C(c5ccc(Cl)cc5)c5c(sc(C)c5C)-n5c(C)nnc54)C3)C2)cc1 (stereo partly drawn) [Compound 224, (E)-1-(7-(2-((S)-4-(4-chlorophenyl)-2,3,9-trimethyl-6H-thieno[3,2-f][1,2,4]triazolo[4,3-a][1,4]diazepin-6-yl)acetyl)-2,7-diazaspiro[4.4]nonan-2-yl)-4-(4-methoxyphenyl)but-2-ene-1,4-dione]	1 to 10	–	1 to 10
COc1ccc(C(=O)/C=C/C(=O)N2CCN(C(=O)C[C@@H]3N=C(c4ccc(Cl)cc4)c4c(sc(C)c4C)-n4c(C)nnc43)CC2)cn1 [Compound 205, (S,E)-1-(4-(2-(4-(4-chlorophenyl)-2,3,9-trimethyl-6H-thieno[3,2-f][1,2,4]triazolo[4,3-a][1,4]diazepin-6-yl)acetyl)piperazin-1-yl)-4-(6-methoxypyridin-3-yl)but-2-ene-1,4-dione]	10 to 100	–	10 to 100
Cc1sc2c(c1C)C(c1ccc(Cl)cc1)=N[C@@H](CC(=O)N1CCN(C(=O)/C=C/C(=O)N3CCOCC3)CC1)c1nnc(C)n1-2 [Compound 248, (S,E)-1-(4-(2-(4-(4-chlorophenyl)-2,3,9-trimethyl-6H-thieno[3,2-f][1,2,4]triazolo[4,3-a][1,4]diazepin-6-yl)acetyl)piperazin-1-yl)-4-morpholinobut-2-ene-1,4-dione]	> 5000	–	> 5000
COc1ccc(C(=O)/C=C/C(=O)N[C@H]2C[C@H](NC(=O)C[C@@H]3N=C(c4ccc(Cl)cc4)c4c(sc(C)c4C)-n4c(C)nnc43)C2)cn1 [Compound 207, (E)-N-((1S,3r)-3-(2-((S)-4-(4-chlorophenyl)-2,3,9-trimethyl-6H-thieno[3,2-f][1,2,4]triazolo[4,3-a][1,4]diazepin-6-yl)acetamido)cyclobutyl)-4-(6-methoxypyridin-3-yl)-4-oxobut-2-enamide]	10 to 100	–	10 to 100
